Columns and labels:
[1] = Binding affinity for Cyclin-dependent kinase 4-cyclin E
[2] = target: Cyclin-dependent kinase 4/cyclin D1 (Homo sapiens, UniProt P11802); test: Binding affinity for Cyclin-dependent kinase 4-cyclin D1; format: protein-complex assay
[3] = test system: HCT-116; test: Inhibition of HCT116 cellular proliferation; format: functional, cell-based; settings: Homo sapiens
[4] = test system: HCT-116; test: Inhibition of HCT116 cell proliferation in the presence of human serum albumin and alpha-1-acidglycoprotein; format: functional, cell-based
[5] = test system: AG1523; test: Inhibition of proliferation AG1523 (human fibroblast) cell line.; format: functional, cell-based
[6] = test system: HCT-116; test: Inhibition of cellular proliferation of HCT116 cell line in the presence of human serum albumin and alpha-1-acidglycoprotein; format: functional, cell-based
[7] = test system: AG1523; test: Inhibition of AG1523 (arrested) cell proliferation; format: functional, cell-based; settings: Homo sapiens
[8] = test system: B16; test: Inhibition of B16-F1 cell proliferation; format: functional, cell-based; settings: Mus musculus
[9] = target: Cyclin-dependent kinase 2/cyclin A (Homo sapiens, UniProt P24941); test: Inhibition of Cyclin-dependent kinase 2-cyclin A; format: protein-complex assay
[10] = target: Cyclin-dependent kinase 1/cyclin B (Homo sapiens, UniProt P06493); test: Inhibition of cyclin-dependent kinase 1-cyclin B; format: protein-complex assay
[11] = test system: NCI-H1299; test: Inhibition of H1299 cell proliferation; format: functional, cell-based; settings: Homo sapiens
[12] = test system: HT-1080; test: Inhibition of HT1080 cell proliferation; format: functional, cell-based; settings: Homo sapiens
[13] = test system: HMEC; test: Inhibition of HMEC cell proliferation; format: functional, cell-based; settings: Homo sapiens
[14] = test system: L1210; test: Inhibition of L1210 cell proliferation; format: functional, cell-based; settings: Mus musculus
[15] = test system: MCF7; test: Inhibition of MCF-7 cell proliferation; format: functional, cell-based; settings: Homo sapiens
[16] = test system: MIA PaCa-2; test: Inhibition of MiaPaCa2 cell proliferation; format: functional, cell-based; settings: Homo sapiens
[17] = test system: NCI-H460; test: Inhibition of NCI-H460 cell proliferation; format: functional, cell-based; settings: Homo sapiens
[18] = test system: NCI-H358; test: Inhibition of NCI-H358 cell proliferation; format: functional, cell-based; settings: Homo sapiens
[19] = test system: PC-3; test: Inhibition of PC3 cell proliferation; format: functional, cell-based; settings: Homo sapiens
[20] = target: cAMP-dependent protein kinase (PKA) (Homo sapiens, UniProt P22694+P17612+P22612); test: Inhibition of protein kinase A; format: protein assay
[21] = target: Tyrosine-protein kinase ABL1 (Homo sapiens, UniProt P00519); test: Inhibition of c-Abl tyrosine kinase
[22] = test system: HT-29; test: Inhibition of HT-29 cell proliferation; format: functional, cell-based; settings: Homo sapiens
[23] = test system: SKUT-1A; test: Inhibition of Skut 1A cell proliferation; format: functional, cell-based; settings: Homo sapiens

Chain of Cyclin-dependent kinase 4/cyclin D1 (P11802 whole entry): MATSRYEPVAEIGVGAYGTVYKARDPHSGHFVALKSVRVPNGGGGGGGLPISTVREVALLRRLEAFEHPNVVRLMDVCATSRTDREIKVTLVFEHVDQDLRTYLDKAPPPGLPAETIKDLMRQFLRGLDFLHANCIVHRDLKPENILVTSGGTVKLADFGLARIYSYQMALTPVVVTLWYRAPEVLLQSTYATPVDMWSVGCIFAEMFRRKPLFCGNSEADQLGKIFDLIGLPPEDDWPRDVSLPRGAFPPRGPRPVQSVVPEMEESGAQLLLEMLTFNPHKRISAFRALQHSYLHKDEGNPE
Chain of Cyclin-dependent kinase 4/cyclin D1 (P24385 whole entry, further chain): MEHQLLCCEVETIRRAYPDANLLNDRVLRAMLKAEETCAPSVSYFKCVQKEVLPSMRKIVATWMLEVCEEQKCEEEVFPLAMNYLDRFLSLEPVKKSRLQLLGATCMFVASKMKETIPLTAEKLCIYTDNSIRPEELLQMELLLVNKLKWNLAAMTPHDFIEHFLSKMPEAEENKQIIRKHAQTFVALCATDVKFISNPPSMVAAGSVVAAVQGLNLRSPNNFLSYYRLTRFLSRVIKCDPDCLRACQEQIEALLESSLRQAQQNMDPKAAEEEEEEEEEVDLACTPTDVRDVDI
Chain of Tyrosine-protein kinase ABL1 (P00519 whole entry): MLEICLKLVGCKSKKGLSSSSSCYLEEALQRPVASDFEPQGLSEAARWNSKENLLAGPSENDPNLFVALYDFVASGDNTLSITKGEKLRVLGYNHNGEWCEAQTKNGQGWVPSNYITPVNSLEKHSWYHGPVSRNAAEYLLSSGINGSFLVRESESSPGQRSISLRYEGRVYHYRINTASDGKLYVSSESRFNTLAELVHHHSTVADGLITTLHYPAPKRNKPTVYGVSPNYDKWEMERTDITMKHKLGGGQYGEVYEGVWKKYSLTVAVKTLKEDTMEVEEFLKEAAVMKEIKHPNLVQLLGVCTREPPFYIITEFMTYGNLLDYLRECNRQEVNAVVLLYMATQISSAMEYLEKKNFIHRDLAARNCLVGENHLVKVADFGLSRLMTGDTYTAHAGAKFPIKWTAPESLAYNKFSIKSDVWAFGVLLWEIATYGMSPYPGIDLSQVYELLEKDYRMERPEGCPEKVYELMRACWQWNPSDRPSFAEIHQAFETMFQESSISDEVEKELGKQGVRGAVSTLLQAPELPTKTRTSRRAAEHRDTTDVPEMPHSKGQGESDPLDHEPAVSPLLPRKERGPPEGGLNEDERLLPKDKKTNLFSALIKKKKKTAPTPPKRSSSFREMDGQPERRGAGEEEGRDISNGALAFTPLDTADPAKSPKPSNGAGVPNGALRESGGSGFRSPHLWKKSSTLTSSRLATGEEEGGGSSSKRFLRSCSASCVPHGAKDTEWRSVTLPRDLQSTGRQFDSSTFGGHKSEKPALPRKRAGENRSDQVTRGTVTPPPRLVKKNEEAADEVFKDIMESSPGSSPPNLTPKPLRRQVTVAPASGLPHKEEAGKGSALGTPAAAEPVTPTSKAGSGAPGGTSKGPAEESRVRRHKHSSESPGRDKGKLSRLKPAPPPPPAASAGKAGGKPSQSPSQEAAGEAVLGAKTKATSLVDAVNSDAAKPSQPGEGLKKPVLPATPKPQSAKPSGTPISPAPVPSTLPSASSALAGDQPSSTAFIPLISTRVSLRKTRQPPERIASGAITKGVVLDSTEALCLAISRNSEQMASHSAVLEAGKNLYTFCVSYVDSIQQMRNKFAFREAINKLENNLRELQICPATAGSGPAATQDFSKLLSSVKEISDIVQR

Compound | IC50 [1] [nM] | IC50 [2] [nM] | IC50 [3] [nM] | IC50 [5] [nM] | also measured
CN(C)CCNC(=O)c1ccc(-c2[nH]nc3c2C(=O)c2c(NC(=O)NN4CCOCC4)cccc2-3)s1 | 21 | 15 | > 800 | – | –
CCN1CCCN(C(=O)c2ccc(-c3[nH]nc4c3C(=O)c3c(NC(=O)NN5CCOCC5)cccc3-4)s2)CC1 | 14 | 7 | 33 | – | IC50 [4]: 7100 nM
Cc1nc(C)c(-c2[nH]nc3c2C(=O)c2c(NC(=O)NN4CCOCC4)cccc2-3)s1 | 9 | > 370 | 8 | > 19000 | IC50 [4]: 500 nM
O=C(Nc1cccc2c1C(=O)c1c(-c3ccc(C(=O)N4CCCNCC4)s3)n[nH]c1-2)NN1CCOCC1 | 6 | 3 | 195 | – | IC50 [4]: > 19700 nM
CN(C)NC(=O)Nc1cccc2c1C(=O)c1c(-c3ccco3)n[nH]c1-2 | 26 | 635 | 160 | – | –
O=C(Nc1cccc2c1C(=O)c1c(-c3ccc(C(=O)N4CCCCC4)s3)n[nH]c1-2)NN1CCOCC1 | 25 | 22 | 52 | – | IC50 [6]: 16800 nM
CN(C)NC(=O)Nc1cccc2c1C(=O)c1c(-c3ccsc3)n[nH]c1-2 | 24 | 107 | 68 | 605 | –
Cc1cc(-c2n[nH]c3c2C(=O)c2c(NC(=O)NN4CCN(C)CC4)cccc2-3)c(C)s1 | 12 | 90 | 24 | 205 | –
CNC1CCN(C(=O)c2ccc(-c3[nH]nc4c3C(=O)c3c(NC(=O)NN5CCOCC5)cccc3-4)s2)C1 (configuration not stated) | 11 | 5 | 230 | – | IC50 [4]: 8500 nM
CN(C)NC(=O)Nc1cccc2c1C(=O)c1c(-c3csc(Cl)c3)n[nH]c1-2 | 7 | 21 | 64 | 615 | –
Cc1cc(-c2n[nH]c3c2C(=O)c2c(NC(=O)NN(C)C)cccc2-3)c(C)s1 | 26 | 515 | 110 | 1500 | –
NC1CCN(C(=O)c2ccc(-c3[nH]nc4c3C(=O)c3c(NC(=O)NN5CCOCC5)cccc3-4)s2)C1 (configuration not stated) | 39 | 35 | > 800 | – | –
O=C(Nc1cccc2c1C(=O)c1c-2n[nH]c1-c1csc(Cl)c1)NN1CCOCC1 | 10 | 7 | 35 | 385 | –
CCOC(=O)c1ccc(-c2[nH]nc3c2C(=O)c2c(NC(=O)NN4CCN(C)CC4)cccc2-3)s1 | 36 | 30 | 46 | – | –
CN1CCN(C(=O)c2ccc(-c3[nH]nc4c3C(=O)c3c(NC(=O)NN5CCOCC5)cccc3-4)s2)CC1 | 32 | 10 | 110 | 485 | IC50 [6]: 9940 nM
CN(C)NC(=O)Nc1cccc2c1C(=O)c1c(-c3cccs3)n[nH]c1-2 | 36 | 340 | 75 | 905 | –
CN(C)C1CCCN(C(=O)c2ccc(-c3[nH]nc4c3C(=O)c3c(NC(=O)NN5CCOCC5)cccc3-4)s2)C1 (configuration not stated) | 24 | 13 | 188 | – | IC50 [6]: 11800 nM

Compound | IC50 [1] [nM] | IC50 [2] [nM] | IC50 [3] [nM] | IC50 [5] [nM] | also measured
Cc1ccc(-c2n[nH]c3c2C(=O)c2c(NC(=O)NN(C)C)cccc2-3)s1 | 25 | 81 | 48 | 640 | –
CCOC(=O)c1ccc(-c2[nH]nc3c2C(=O)c2c(NC(=O)NN(C)C)cccc2-3)s1 | 28 | 185 | 380 | 2800 | –
CCN1CCN(C(=O)c2ccc(-c3[nH]nc4c3C(=O)c3c(NC(=O)NN5CCOCC5)cccc3-4)s2)CC1 | 19 | 5 | 63 | – | IC50 [6]: 14300 nM
O=C(Nc1cccc2c1C(=O)c1c(-c3ccc(C(=O)NCCN4CCOCC4)s3)n[nH]c1-2)NN1CCOCC1 | 51 | 86 | 860 | – | –
CCOC(=O)c1ccc(-c2[nH]nc3c2C(=O)c2c(NC(=O)NN4CCOCC4)cccc2-3)s1 | 31 | 30 | 110 | > 17000 | IC50 [4]: 3200 nM
Cc1nc(C)c(-c2n[nH]c3c2C(=O)c2c(NC(=O)NN(C)C)cccc2-3)s1 | 4 | 150 | – | – | –
Cc1cc(-c2[nH]nc3c2C(=O)c2c(NC(=O)NN4CCOCC4)cccc2-3)c(C)s1 | < 8 | 125 | 25 | 345 | –
CN(C)C1CCN(C(=O)c2ccc(-c3[nH]nc4c3C(=O)c3c(NC(=O)NN5CCOCC5)cccc3-4)s2)C1 (configuration not stated) | 44 | 12 | 64 | 330 | IC50 [4]: 2540 nM
O=C(Nc1cccc2c1C(=O)c1c(-c3ccc(C(=O)NCCN4CCCC4)s3)n[nH]c1-2)NN1CCOCC1 | 25 | 23 | 475 | 680 | –
CN(C)C1CCN(C(=O)c2ccc(-c3[nH]nc4c3C(=O)c3c(NC(=O)NN5CCOCC5)cccc3-4)s2)CC1 | 23 | 8 | 210 | 1000 | IC50 [6]: > 15100 nM
Cc1nc(C)c(-c2[nH]nc3c2C(=O)c2c(NC(=O)NN4CCN(C)CC4)cccc2-3)s1 | – | 46 | 14 | > 21000 | IC50 [7]: > 21000 nM; IC50 [8]: 160 nM; IC50 [9]: 13 nM; IC50 [10]: 6 nM; IC50 [4]: 260 nM; IC50 [11]: 12 nM; IC50 [12]: 30 nM; IC50 [13]: 55 nM; IC50 [14]: 105 nM; IC50 [15]: 23 nM; IC50 [16]: 26 nM; IC50 [17]: 104 nM; IC50 [18]: 18 nM; IC50 [19]: 125 nM; IC50 [20]: > 42000 nM; IC50 [21]: 17600 nM; IC50 [22]: 87 nM; IC50 [23]: 25 nM
COc1ccc(-c2[nH]nc3c2C(=O)c2c(NC(=O)NN(C)C)cccc2-3)s1 | 32 | 84 | 130 | 1550 | –
O=C(Nc1cccc2c1C(=O)c1c(-c3ccc(C(=O)NCCN4CCCCC4)s3)n[nH]c1-2)NN1CCOCC1 | 31 | 22 | 20 | 255 | –
CN1CCCN(C(=O)c2ccc(-c3[nH]nc4c3C(=O)c3c(NC(=O)NN5CCOCC5)cccc3-4)s2)CC1 | 15 | 4 | 19 | 63 | IC50 [4]: 870 nM
O=C(Nc1cccc2c1C(=O)c1c(-c3ccc(C(=O)N4CCCCCC4)s3)n[nH]c1-2)NN1CCOCC1 | 23 | 17 | 53 | – | IC50 [4]: 8320 nM
O=C(Nc1cccc2c1C(=O)c1c(-c3ccc(C(=O)N4CCNCC4)s3)n[nH]c1-2)NN1CCOCC1 | 38 | 4 | 700 | – | IC50 [6]: 15400 nM
Cc1ccc(-c2[nH]nc3c2C(=O)c2c(NC(=O)NN4CCOCC4)cccc2-3)s1 | 10 | 23 | 25 | 285 | –
